# Measured values taken from patent US12600740B2, “Fluorinated N-acetyl glucosamine analogs and xylose derivatives” (UTI Limited Partnership, priority 2018, dated 2026).
# Tested on: oligodendrocyte precursor cells (OPCs)
# Assay: Growth of OPCs on astrocyte-secreted extracellular matrix
# Type: cell-based, mouse
# Settings: OPCs on inhibitory astrocyte matrix; significance class
# Text: The process of remyelination requires oligodendrocyte lineage cells to undergo process outgrowth prior to their expression of mature myelin proteins for repair. Thus, process outgrowth in culture by cells of the oligodendrocyte lineage has been used as one surrogate for myelinating potential in vivo [Keough, M. B.; Rogers, J. A.; Zhang, P.; Jensen, S. K.; Stephenson, E. L.; Chen, T.; Hurlbert, M. G.; Lau, L. W.; Rawji, K. S.; Plemel, J. R. et al. An inhibitor of chondroitin sulfate proteoglycan synthesis promotes central nervous system remyelination. Nat. Commun. 2016, 7, 11312], since an oligodendrocyte needs to elaborate multiple protrusions emanating in several directions to contact many axons, and where these processes then compact around axons to form myelin segments. The presence of CSPGs in culture impairs the process outgrowth of OPCs, and this has been linked to reduced remyelination capacity in vivo [Keough, M. B.; Rogers, J. A.; Zhang, P.; Jensen, S. K.; Stephenson, E. L.; Chen, T.; Hurlbert, M. G.; Lau, L. W.; Rawji, K. S.; Plemel, J. R. et al. An inhibitor of chondroitin sulfate proteoglycan synthesis promotes central nervous system remyelination. Nat. Commun. 2016, 7, 11312]. It was reported previously that astrocytes in culture produce a plate-bound matrix abundant in CSPGs, that is left behind once astrocytes are removed from the plate, and this CSPG-containing matrix inhibits the outgrowth of plated OPCs [Keough, M. B. et al. An inhibitor of chondroitin sulfate proteoglycan synthesis promotes central nervous system remyelination. Nature communications 7, 11312 (2016)] (FIG. 7a). Thus, astrocytes were treated with test compounds for 48 hours and they were then removed from the cell culture plate leaving only their secreted ECM behind (FIG. 7a). When OPCs were plated on the astrocyte matrix, the extent of their process outgrowth over […] of observation was inhibited (FIG. 7b). […] OPCs growing in the absence of astrocyte ECM can reach a mean outgrowth around 300 μm (FIG. 7b,c). […] These compounds were: Ac-4,4-diF-GlcNAc 16 (Ac-4,4-diF-GlcNAc), fluorosamine 3 and its O1-deacetylated analog 10 (Ac-4-F-GlcNAcOH), anomeric O-propanoate 7, anomeric O-butanoate 8 (Ac-4-F-GlcNAcOBu), and the 4-fluorinated GalNAc derivative 13 (Ac-4-F-GalNAc) (FIG. 7c).
# In brief, cortices from postnatal days 1-3 mouse brains were dissociated with papain digestion and then plated as a mixed culture for 7 days in a 37° C. incubator at 8.5% CO2 whereupon OPCs and microglia tended to be loosely attached on top of a monolayer of astrocytes; the OPCs and microglia were then shaken off when placed on an orbital shaker at 220 r.p.m. at 37° C. and 5% CO2 overnight. The media containing microglia and OPCs were collected and added to a 100 mm tissue culture dish and left at 37° C. and 5% CO2 for 30 min, to allow preferential adhesion of microglia. The media were collected again, now containing OPCs, and used as the OPC-enriched isolates for experiments. For the remaining adhered cells, largely astrocytes, these were removed with 0.25% trypsin and after centrifugation and washing, these astrocytes were plated at a density of 1.0×10^5 cells in flat bottom 96-well plates coated with 10 μg/ml poly-L-lysine. Cells were grown for 7 days at 37° C. and 5% CO2 in MGM and daily media changes. Astrocytes were carefully removed with EDTA treatment (0.2 g EDTA (Na4) per liter PBS, 30 minutes at 37° C. and 5% CO2) and mechanical dislodgement with a micropipetter. The remaining ECM left behind was covered with PBS at 4° C. until OPCs were seeded. Enriched OPCs from mixed glial cultures were seeded at a density of 5-10×10^4 cells per well in OPC media and grown at 37° C. and 8.5% CO2 for 18-24 h and then were fixed with 4% ice-cold paraformaldehyde at 4° C. for 10 min, rinsed with PBS, and stored at 4° C. until immunocytochemistry. […]
row,Structure (SMILES),Enhance OPC outgrowth
1,"CCCC(=O)OC[C@H]1OC(O)[C@H](NC(C)=O)[C@@H](OC(=O)CCC)[C@@H]1F (stereo partly drawn) [Compound 12, 2-Acetamido-3,6-di-O-butanoyl-2,4-dideoxy-4-fluoro-α/β-3-D-glucopyranose]",n.s.
2,"CC(=O)N[C@H]1[C@H](OC(C)=O)O[C@H](COC(C)=O)[C@@H](OC(C)=O)[C@@H]1OC(C)=O [Compound 1, reference compound]",n.s.
3,"CC(=O)NC1C(OC(C)=O)OC(COC(C)=O)[C@@H](F)C1OC(C)=O (stereo partly drawn) [Compound 3, reference compound]",** (**p < 0.01)

# Same assay, conditions: astrocytes treated 48 hours, then removed; OPCs plated on matrix
row,Structure (SMILES),mean process outgrowth of OPCs on astrocyte ECM
1,"CCC(=O)OC1OC(COC(C)=O)[C@@H](F)[C@H](OC(C)=O)C1NC(C)=O (stereo partly drawn) [Compound 7, 2-Acetamido-3,6-di-O-acetyl-2,4-dideoxy-4-fluoro-1-O-propanoyl-α/β-D-glucopyranose]",effective at improving mean outgrowth of OPCs
2,"CC(=O)NC1C(OC(C)=O)OC(COC(C)=O)[C@H](F)[C@@H]1OC(C)=O (mixture of isomers) [Compound 13, 2-Acetamido-1,3,6-tri-O-acetyl-2,4-dideoxy-4-fluoro-α/β-D-galactopyranose]",effective at improving mean outgrowth of OPCs
3,"CC(=O)NC1C(OC(C)=O)OC(COC(C)=O)[C@@H](F)C1OC(C)=O (stereo partly drawn) [Compound 3, reference compound]",effective at improving mean outgrowth of OPCs
4,"CCCC(=O)OC1OC(COC(C)=O)[C@@H](F)[C@H](OC(C)=O)C1NC(C)=O (mixture of isomers) [Compound 8, 2-Acetamido-3,6-di-O-acetyl-1-O-butanoyl-2,4-dideoxy-4-fluoro-α/β-D-glucopyranose]",effective at improving mean outgrowth of OPCs
5,CC(=O)NC1C(O)OC(COC(C)=O)[C@@H](F)[C@@H]1OC(C)=O (mixture of isomers) [Compound 10],effective at improving mean outgrowth of OPCs
6,"CC(=O)NC1C(OC(C)=O)OC(COC(C)=O)C(F)(F)[C@@H]1OC(C)=O (mixture of isomers) [Compound 16, 2-Acetamido-1,3,6-tri-O-acetyl-2,4-dideoxy-4,4-difluoro-α/β-D-xylo-hexopyranose]",effective at improving mean outgrowth of OPCs
